The source of these data is ChEMBL document CHEMBL3621097, “A step forward in the sigma enigma: a role for chirality in the sigma1 receptorligand interaction?” (Medchemcomm, 2015).

pKi: −log10 of the molar value. The source made the active and inactive calls. No cut-off for these calls is given here.

Assay [1] concerns the target Sigma non-opioid intracellular receptor 1 (Cavia porcellus, UniProt Q60492). Kind of assay: Displacement of [3H](+)-pentazocine from sigma-1 receptor in guinea pig brain cortex after 120 mins by scintillation counting analysis. A general note: In a radioligand displacement assay an active substance lowers the binding of a labelled ligand.
Assay [2] can be described thus: Displacement of [3H]-DTG from sigma-2 receptor in Sprague-Dawley rat liver membranes after 120 mins by scintillation counting analysis. The format is cell membranes, Membrane.
Assay [3] addresses Sigma non-opioid intracellular receptor 1 (Rattus norvegicus) (UniProt Q9R0C9). Kind of assay: Agonist activity at sigma 1 receptor in rat PC12 cells assessed as potentiation of NGF-induced neurite outgrowth at 2.5 to 5 uM after 5 days by phase contrast microscopic analysis relative to NGF-treated control. The conditions noted are these: PC-12. Format: cell-based.
For assay [4] the target is unchanged. In words: Agonist activity at sigma 1 receptor in rat PC12 cells assessed as potentiation of NGF-induced neurite outgrowth at 2.5 to 5 uM after 5 days by phase contrast microscopic analysis. The conditions noted are these: PC-12. Format: cell-based.
The target is the same in assay [5]. Kind of assay: Agonist activity at sigma 1 receptor in rat PC12 cells assessed as potentiation of NGF-induced neurite outgrowth at 2.5 to 5 uM after 5 days by phase contrast microscopic analysis in presence of sigma 1 antagonist NE-100. Particulars: PC-12. The format is cell-based.
Assay [6] can be described thus: Selectivity ratio of Ki for sigma-2 receptor in Sprague-Dawley rat liver membrane to Ki for sigma-1 receptor in guinea pig brain cortex. The format is cell membranes.

Chain of Sigma non-opioid intracellular receptor 1 (Rattus norvegicus) (Q9R0C9 whole entry): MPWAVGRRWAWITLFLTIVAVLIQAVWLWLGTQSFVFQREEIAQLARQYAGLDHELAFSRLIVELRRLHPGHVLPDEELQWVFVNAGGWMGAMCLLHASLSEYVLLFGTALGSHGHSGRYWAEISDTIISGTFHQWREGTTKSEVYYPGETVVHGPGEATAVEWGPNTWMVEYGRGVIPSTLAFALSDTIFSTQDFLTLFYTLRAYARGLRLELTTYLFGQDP
Chain of Sigma non-opioid intracellular receptor 1 (Q60492 whole entry): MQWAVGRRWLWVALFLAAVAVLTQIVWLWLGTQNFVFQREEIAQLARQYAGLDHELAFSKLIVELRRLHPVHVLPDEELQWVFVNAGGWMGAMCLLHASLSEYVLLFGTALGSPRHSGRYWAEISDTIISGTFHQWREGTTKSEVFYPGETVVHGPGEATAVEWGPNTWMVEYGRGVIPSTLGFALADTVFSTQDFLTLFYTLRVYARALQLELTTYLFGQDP

As for `CC1N(C)CCC1(O)c1ccc2ccccc2c1` (racemic), the pKi (as a rule, the Ki on a negative log10 scale, so that one unit is a factor of ten) in assay [1] was 7.19; in assay [2], 6.44.

Take `CC(CCN1CCCCC1)c1ccc(-c2ccccc2)cc1` (racemic): the pKi was 9.05 in assay [1] and 6.99 in assay [2].

For `CN(C)CC[C@@](C)(O)c1ccc2ccccc2c1`, the pKi is 6.69 in assay [1] and 6.19 in assay [2].

`C[C@@H](CCN1CCCCC1)c1ccc(-c2ccccc2)cc1`: the pKi is 8.72 in assay [1] and 7.01 in assay [2].

As for `CN(C)CC[C@](C)(O)c1ccc2ccccc2c1`, the pKi in assay [1] is 7.20; in assay [2], 7.12.

Regarding `COc1ccc2cc(C3(O)CCN(C)C3C)ccc2c1` (configuration not stated), the pKi in assay [1] was 5.72; in assay [2] it was 5.82.

Regarding `COc1ccc2cc([C@](C)(O)CCN(C)C)ccc2c1`, the pKi in assay [1] is 7.29; in assay [2] it was 6.88.

`C[C@@](O)(CCN1CCCCC1)c1ccc(-c2ccccc2)cc1`: the negative logarithm of the Ki (pKi) is 7.41 in assay [1] and 5.37 in assay [2]. Besides, the outcome in assay [3] was inactive.

For `COc1ccc2cc([C@]3(O)CCN(C)[C@H]3C)ccc2c1`, the pKi in assay [1] was 5.92; in assay [2], 5.72.

Take `COc1ccc2cc([C@@]3(O)CCN(C)[C@@H]3C)ccc2c1`: the values for the pKi in assay [1] and in assay [2] were 5.82 and 5.92, respectively.

For the compound `CN(C)CCC(C)(O)c1ccc2ccccc2c1` (racemic), the pKi in assay [1] was 7.11; in assay [2], 7.18.

For `COc1ccc2cc([C@@](C)(O)CCN(C)C)ccc2c1`, the results for the negative-log Ki (pKi) in assay [1] and in assay [2] were 7.60 and 5.96, respectively.

For `COc1ccc2cc(C(C)(O)CCN(C)C)ccc2c1` (racemic), the pKi was 7.39 in assay [1] and 7.01 in assay [2].

In the case of `CC(O)(CCN1CCCCC1)c1ccc(-c2ccccc2)cc1` (racemic), the pKi in assay [1] was 8.18; in assay [2], 7.46. Also, the result in assay [4] was Active. In addition, the result in assay [5] was inactive.

Regarding `C[C@@H]1N(C)CC[C@@]1(O)c1ccc2ccccc2c1`, the pKi was 7.59 in assay [1] and 6.36 in assay [2].

For the compound `C[C@H](CCN1CCCCC1)c1ccc(-c2ccccc2)cc1`, the pKi in assay [1] is 8.74; in assay [2], 7.35.

Take `C[C@](O)(CCN1CCCCC1)c1ccc(-c2ccccc2)cc1`: the results for the pKi in assay [1] and in assay [2] were 8.33 and 5.74, respectively. Moreover, the Ratio Ki in assay [6] amounted to 382. For the same compound, the outcome in assay [4] was Active. The outcome in assay [5] was inactive.

Regarding `C[C@H]1N(C)CC[C@]1(O)c1ccc2ccccc2c1`, the figures for the pKi in assay [1] and in assay [2] were 7.07 and 7.03, respectively.
